Test results published in US20170121344A1 (Siga Technologies, Inc., priority 2009, published 2017).

These compounds were tested on Dengue-2 (Strain New Guinea C) (assay: Viral yield assay against Dengue-2 in Vero cells). Details: Dengue virus, DENV2, Vero, 48 h, read-out: Activity (EC50 in μM) DENV-2.
Assay type: cell-based, Dengue virus
Method: Compounds that were active in the primary screen were tested for activity in viral yield assays. […] Vero cells in 12-well plates were infected with dengue-2 virus at a multiplicity of infection (MOI) of 0.1, treated with compound (or DMSO as a control), incubated at 37° C., harvested 48 hours post infection and titered on Vero cells as described above. The EC50 was calculated through ExcelFit. Activities against other serotypes of dengue virus were determined in a similar way.

Row | SMILES | EC50 [µM]
1 | COc1ccc(NC(=O)c2sc3nc(-c4cccs4)ccc3c2N)cc1OC [Compound 444, 3-amino-N-(3,4-dimethoxyphenyl)-6-(2-thienyl)thieno[2,3-b]pyridine-2-carboxamide] | < 5

Same assay, conditions: Dengue virus, DENV2; Vero cells; read-out: Activity (EC50 in μM) DENV-2

Row | SMILES | EC50 [µM]
2 | NCCCNc1c(C(=O)Nc2nnc(-c3ccccc3)s2)sc2nc3c(cc12)CCCCC3 [Compound 313, 3-((3-aminopropyl)amino)-N-(5-phenyl-1,3,4-thiadiazol-2-yl)-6,7,8,9-tetrahydro-5H-cyclohepta[b]thieno[3,2-e]pyridine-2-carboxamide] | < 5

Same assay, conditions: Dengue virus, DENV2; viral yield assay, Vero cells, MOI 0.1, 48 hours post infection; read-out: Activity (EC50 in μM) DENV-2

Row | SMILES | EC50 [µM]
3 | COc1cccc(-c2ccc3c(N)c(C(=O)Nc4cc(C(F)(F)F)ccc4Cl)sc3n2)c1 [Compound 560, 3-amino-N-[2-chloro-5-(trifluoromethyl)phenyl]-6-(3-methoxyphenyl)thieno [2,3-b]pyridine-2-carboxamide] | < 5
4 | Nc1c(C(=O)Nc2ccccc2C(F)(F)F)sc2ncccc12 [Compound 424, 3-amino-N-[2-(trifluoromethyl)phenyl] thieno[2,3-b]pyridine-2-carboxamide] | 5 to 25
5 | Nc1c(C(=O)Nc2ccc(Br)cc2)sc2nc(-c3ccc(Cl)cc3Cl)ccc12 [Compound 654, 3-amino-N-(4-bromophenyl)-6-(2,4-dichlorophenyl)thieno[2,3-b]pyridine-2-carboxamide] | < 5
6 | Nc1c(C(=O)Nc2cc(Cl)ccc2Cl)sc2nc(-c3ccc(Cl)cc3)ccc12 [Compound 347, 3-amino-6-(4-chlorophenyl)-N-(2,5-dichloro-phenyl)thieno [2,3-b]pyridine-2-carboxamide] | < 5
7 | COc1cccc(-c2ccc3c(N)c(C(=O)Nc4ccccc4C)sc3n2)c1 [Compound 521, 3-amino-6-(3-methoxyphenyl)-N-(o-tolyl)thieno[2,3-b]pyridine-2-carboxamide] | < 5
8 | Cc1cc(C)c2c(C)c(C(=O)NCc3ccco3)sc2n1 [Compound 389, N-(2-furylmethyl)-3,4,6-trimethyl-thieno [2,3-b]pyridine-2-carboxamide] | 5 to 25
9 | COc1ccc(OC)c(CN2CCN(C(=O)c3sc4nc(C)cc(C)c4c3C)CC2)c1 [Compound 407, [4-[(2,5-dimethoxyphenyl)methyl)piperazin-1-yl]-(3,4,6-trimethylthieno [2,3-b]pyridin-2-yl)methanone] | > 25
10 | O=C(Nc1ccc(Cl)cc1)c1sc2ncccc2c1OCc1ccc(Cl)c(Cl)c1 [Compound 376, N-(4-chlorophenyl)-3-[(3,4-dichlorophenyl)methoxy]thieno[2,3-b] pyridine-2-carboxamide] | 5 to 25
11 | COc1cccc(-c2ccc3c(N)c(C(=O)Nc4cc(F)ccc4F)sc3n2)c1 [Compound 516, 3-amino-N-(2,5-difluorophenyl)-6-(3-methoxyphenyl)thieno[2,3-b]pyridine-2-carboxamide] | < 5
12 | COc1ccc(-c2ccc3c(N)c(C(=O)Nc4ccc(Br)cc4C)sc3n2)cc1OC [Compound 578, 3-amino-N-(4-bromo-2-methyl-phenyl)-6-(3,4-dimethoxyphenyl)thieno[2,3-b] pyridine-2-carboxamide] | < 5
13 | COc1ccc(-c2ccc3c(N)c(C(=O)Nc4ccccc4C)sc3n2)cc1OC [Compound 581, 3-amino-6-(3,4-dimethoxyphenyl)-N-(o-tolyl)thieno[2,3-b]pyridine-2-carboxamide] | < 5
14 | Nc1c(C(=O)Nc2ccncc2)sc2nc(-c3cccc(C(F)(F)F)c3)ccc12 [Compound 653, 3-amino-N-(4-pyridyl)-6-[3-(trifluoromethyl)phenyl]thieno[2,3-b] pyridine-2-carboxamide] | < 5

Same assay, conditions: Dengue virus, Vero, 48 h, read-out: Activity (EC50 class) against Dengue-2 Virus in Vero cells

Row | SMILES | EC50 [µM]
15 | Cc1cc(C)c2c(N)c(C(=O)Nc3cccc(C)c3C)sc2n1 [Compound 181, 3-Amino-4,6-dimethyl-thieno[2,3-b]pyridine-2-carboxylic acid (2,3-dimethyl-phenyl)-amide] | > 25
16 | CC1(C)Cc2nc3sc(C(=O)NCCCO)c(N)c3cc2CS1 [Compound 253, 3-Amino-7,7-dimethyl-7,8-dihydro-5H-1,6-dithia-9-aza-cyclopenta[b]naphthalene-2-carboxylic acid (3-hydroxy-propyl)-amide] | > 25
17 | COc1ccc(-c2c(C#N)c(N)nc3sc(C(N)=O)c(N)c23)cc1OC [Compound 170, 3,6-Diamino-5-cyano-4-(3,4-dimethoxy-phenyl)-thieno[2,3-b]pyridine-2-carboxylic acid amide] | > 25
18 | CCc1nc2c(sc3nc4c(cc32)COC(C)(C)C4)c(=O)n1Cc1ccco1 [Compound 235, 3-Ethyl-2-furan-2-ylmethyl-8,8-dimethyl-8,9-dihydro-2H,6H-7-oxa-11-thia-2,4,10-triaza-benzo[b]fluoren-1-one] | > 25
19 | Cc1cc(C)c2c(N)c(C(=O)NCc3ccccc3)sc2n1 [Compound 260, 3-Amino-4,6-dimethyl-thieno[2,3-b]pyridine-2-carboxylic acid benzylamide] | > 25
20 | Nc1c(C(=O)Nc2ccc(S(N)(=O)=O)cc2)sc2nc3c(cc12)CCCCC3 [Compound 80, 3-Amino-6,7,8,9-tetrahydro-5H-1-thia-10-aza-cyclohepta[f]indene-2-carboxylic acid (4-sulfamoyl-phenyl)-amide] | 5 to 25

Same assay, conditions: Dengue virus; Vero cells, MOI 0.1, harvested 48 hours post infection; read-out: Activity (EC50 class) against Dengue-2 Virus in Vero cells

Row | SMILES | EC50 [µM]
21 | CCOC(=O)c1c(NC(=O)c2sc3nc4c(cc3c2N)CN(C)CC4)sc2c1CCCC2 [Compound 57, 2-[(3-Amino-6-methyl-5,6,7,8-tetrahydro-thieno[2,3-b][1,6]naphthyridine-2-carbonyl)-amino]-4,5,6,7-tetrahydro-benzo[b]thiophene-3-carboxylic acid ethyl ester] | < 5
22 | CC(C)N1CCc2nc3sc(C(=O)Nc4ccc(C(F)(F)F)cc4)c(N)c3cc2C1 [Compound 60, 3-Amino-6-isopropyl-5,6,7,8-tetrahydro-thieno[2,3-b][1,6]naphthyridine-2-carboxylic acid (4-trifluoromethyl-phenyl)-amide] | < 5
23 | CN1CCc2nc3sc(C(=O)Nc4ccc(N(C)C)cc4)c(N)c3cc2C1 [Compound 20, 3-Amino-6-methyl-5,6,7,8-tetrahydro-thieno[2,3-b][1,6]naphthyridine-2-carboxylic acid (4-dimethylamino-phenyl)-amide] | < 5
24 | CCc1c(C)nc2sc(C(N)=O)c(N)c2c1C [Compound 160, 3-Amino-5-ethyl-4,6-dimethyl-thieno[2,3-b]pyridine-2-carboxylic acid amide] | > 25
25 | CN1CCc2nc3sc(C(=O)Nc4ccc(OC(F)(F)F)cc4)c(N)c3cc2C1 [Compound 30, 3-Amino-6-methyl-5,6,7,8-tetrahydro-thieno[2,3-b][1,6]naphthyridine-2-carboxylic acid (4-trifluoromethoxy-phenyl)-amide] | < 5
26 | CN1CCc2nc3sc(C(=O)Nc4cccc(C(F)(F)F)c4)c(N)c3cc2C1 [Compound 280, 3-Amino-6-methyl-5,6,7,8-tetrahydro-thieno[2,3-b][1,6]naphthyridine-2-carboxylic acid (3-trifluoromethyl-phenyl)-amide] | > 25
27 | CN1CCc2nc3sc(C(=O)Nc4ccccc4F)c(N)c3cc2C1 [Compound 38, 3-Amino-6-methyl-5,6,7,8-tetrahydro-thieno[2,3-b][1,6]naphthyridine-2-carboxylic acid (2-fluoro-phenyl)-amide] | < 5
28 | Nc1c(C(=O)Nc2ccccc2)sc2nc(-c3ccccc3)cc(-c3ccccc3)c12 [Compound 66, 3-Amino-4,6-diphenyl-thieno[2,3-b]pyridine-2-carboxylic acid phenylamide] | 5 to 25
29 | CN1CCc2nc3sc(C(=O)Nc4cccc(Cl)c4)c(N)c3cc2C1 [Compound 18, 3-Amino-6-methyl-5,6,7,8-tetrahydro-thieno[2,3-b][1,6]naphthyridine-2-carboxylic acid (3-chloro-phenyl)-amide] | < 5
30 | Cc1ccc(NC(=O)c2sc3nc4c(cc3c2N)CN(C)CC4)c(F)c1 [Compound 104, 3-Amino-6-methyl-5,6,7,8-tetrahydro-thieno[2,3-b][1,6]naphthyridine-2-carboxylic acid (2-fluoro-4-methyl-phenyl)-amide] | 5 to 25
31 | N#Cc1ccc(NC(=O)c2sc3nc(N)c(C#N)cc3c2N)cc1 [Compound 152, 3,6-Diamino-5-cyano-thieno[2,3-b]pyridine-2-carboxylic acid (4-cyano-phenyl)-amide] | > 25
32 | CCCCN(CCCC)C(=O)c1sc2nc(N3CCOCC3)c3c(c2c1N)CC(C)(C)OC3 [Compound 246, 1-Amino-8,8-dimethyl-5-morpholin-4-yl-8,9-dihydro-6H-7-oxa-3-thia-4-aza-cyclopenta[a]naphthalene-2-carboxylic acid dibutylamide] | > 25
33 | Nc1c(C(=O)Nc2ccc3ccccc3c2)sc2nc3c(cc12)CCCC3 [Compound 87, 3-Amino-5,6,7,8-tetrahydro-thieno[2,3-b]quinoline-2-carboxylic acid naphthalen-2-ylamide] | 5 to 25
34 | CCc1ccccc1NC(=O)c1sc2nc3c(c(-c4ccco4)c2c1N)CCC3 [Compound 219, 3-Amino-4-furan-2-yl-6,7-dihydro-5H-cyclopenta[b]thieno[3,2-e]pyridine-2-carboxylic acid (2-ethyl-phenyl)-amide] | > 25
35 | Nc1c(C(=O)Nc2nnc(-c3ccccc3)s2)sc2nc(-c3cccs3)cc(C(F)(F)F)c12 [Compound 5, 3-Amino-6-thiophen-2-yl-4-trifluoromethyl-thieno[2,3-b]pyridine-2-carboxylic acid (5-phenyl-[1,3,4]thiadiazol-2-yl)-amide] | < 5
